Columns and labels:
[1] = Properties of respective derivatives (solubility); assay type: physicochemical
rats = assay: Diuretic effect in rats; assay type: in vivo, Wister strain male rats; conditions: Rattus norvegicus, po, 5 h, urine volume up to 5 hours, % of control; for response vs control in vivo at 5 mg/kg: dosage 5 mg/kg; for response vs control in vivo at 10 mg/kg: dosage 10 mg/kg; for response vs control in vivo at 20 mg/kg: dosage 20 mg/kg; for response vs control in vivo at 2.5 mg/kg: dosage 2.5 mg/kg; for response vs control in vivo at 50 mg/kg: dosage 50 mg/kg
Procedure: Wister strain male rats weighing about 200 g were starved overnight and each compound of this invention suspended in 25 ml/kg of physiological saline were administered orally to the 5 animals in each group, and the diuretic effect up to 5 hours after the administration was measured. The diuretic effect is expressed as the average urine volume (%) of the treated group divided by that of the control group.

[2] = tested on: Carrageenin-Induced Foot Edema; assay: Inhibition for carrageenin-induced foot edema in rats; assay type: in vivo, Wister strain male rats; conditions: 1 hour before carrageenin, paw volume 3 hours after, probit method; for ED30: Rattus norvegicus, po, read-out: ED30 (dosage for 30% inhibition of edema)
Procedure: 10 Wister strain male rats weighing about 120 g were used in each group. Each compound of this invention was suspended in a 5% aqueous arabic gum solution and administered orally to the animals. One hour after the administration, 0.1 ml of a 1% solution of carrageenin in physiological saline as a phlogistic agent was subcutaneously injected into the right hind paw of the rats which had been shaven previously. The volume of the right hind paw was measured before the administration of the phlogistic agent and 3 hours after the administration. The intensity of edema expressed as percent increase in the foot volume was calculated from the […] (1) and the percent inhibition of edema was calculated from the equation (2). [formula]
The effective dosage of each compound for inhibiting edema was expressed as ED30 (mg/kg) by calculating the dosage for 30% inhibition from the percent inhibition of edema according to the probit method.

[3] = Acute oral toxicity in mice; conditions: mouse, in vivo, mortality 7 days after administration
Procedure: 10 ddY Strain male mice weighing about 20 g were used in each group. Each compound of this invention was suspended in a 5% aqueous gum arabic solution and administered orally. The mortality rate (%) was determined from the number of dead animals 7 days after the administration, and the dosage corresponding to 50% mortality was calculated and expressed as LD50 (mg/kg).

Structure (SMILES)	Solubility in methanol, acetone and chloroform [1]	Solubility in water and hexane [1]	response vs control in vivo at 5 mg/kg (rats) [%]	response vs control in vivo at 10 mg/kg (rats) [%]	response vs control in vivo at 20 mg/kg (rats) [%]	ED30 [2] [mg/kg]	LD50 at 168 h [3] [mg/kg]	response vs control in vivo at 2.5 mg/kg (rats) [%]	response vs control in vivo at 25 mg/kg (rats; dosage 25 mg/kg) [%]	response vs control in vivo at 50 mg/kg (rats) [%]	Solubility in ethanol and dichloromethane [1]	response vs control in vivo at 0.5 mg/kg (rats; dosage .5 mg/kg (so in the source)) [%]	ED30 (dosage for 30% inhibition of edema) ([2]; oral) [mg/kg]
CC(=O)N1CCC(=NO)c2cc(Cl)ccc21 [Compound I, 6-Chloro-4-oximino-1-acetyl-1,2,3,4-tetrahydroquinoline]	easily soluble	Sparingly soluble	131	186	260	39	> 5000						
CCC(=O)N1CCC(=NO)c2cc(Cl)ccc21 [Compound II, 6-Chloro-4-oximino-1-propionyl-1,2,3,4-tetrahydroquinoline]	easily soluble	Sparingly soluble	304	410		8.8	3490	253					
CCCC(=O)N1CCC(=NO)c2cc(Cl)ccc21 [Compound III, 6-Chloro-4-oximino-1-butyryl-1,2,3,4-tetrahydroquinoline]	easily soluble	Sparingly soluble	122	172	240	33	> 5000						
CC(C)C(=O)N1CCC(=NO)c2cc(Cl)ccc21 [Compound IV, 6-Chloro-4-oximino-1-isobutyryl-1,2,3,4-tetrahydroquinoline]	easily soluble	Sparingly soluble				87	> 5000		119	211			
CCCCC(=O)N1CCC(=NO)c2cc(Cl)ccc21 [Compound V, 6-Chloro-4-oximino-1-valeryl-1,2,3,4-tetrahydroquinoline]	easily soluble	Sparingly soluble				140	> 5000			209			
CC(C)CC(=O)N1CCC(=NO)c2cc(Cl)ccc21 [Compound VI, 6-Chloro-4-oximino-1-isovaleryl-1,2,3,4-tetrahydroquinoline]	easily soluble	Sparingly soluble				105	> 5000			196			
O=C(Cc1ccccc1)N1CCC(=NO)c2cc(Cl)ccc21 [Compound VII, 6-Chloro-4-oximino-1-phenylacetyl-1,2,3,4-tetrahydroquinoline]	easily soluble	Sparingly soluble				140	> 5000			202			
O=C(C=Cc1ccccc1)N1CCC(=NO)c2cc(Cl)ccc21 [Compound VIII, 6-Chloro-4-oximino-1-cinnamoyl-1,2,3,4-tetrahydroquinoline]	easily soluble	Sparingly soluble				44	> 5000			228			
COC(=O)N1CCC(=NO)c2cc(Cl)ccc21 [Compound X, 6-Chloro-4-oximino-1-methoxycarbonyl-1,2,3,4-tetrahydroquinoline]		Sparingly soluble	306	371		14	4470	188			soluble		
COC(=O)N1CCC(=NO)c2cc(Br)ccc21 [Compound XI, 6-Bromo-4-oximino-1-methoxycarbonyl-1,2,3,4-tetrahydroquinoline]		Sparingly soluble		293		83	> 5000				soluble	152	
CCOC(=O)N1CCC(=NO)c2cc(F)ccc21 [Compound XII, 6-Fluoro-4-oximino-1-ethoxycarbonyl-1,2,3,4-tetrahydroquinoline]		Sparingly soluble		180	285	86	> 5000				soluble		
CCOC(=O)N1CCC(=NO)c2cc(Cl)ccc21 [Compound XIII, 6-Chloro-4-oximino-1-ethoxycarbonyl-1,2,3,4-tetrahydroquinoline]		Sparingly soluble		204	310	49	> 5000				soluble		
CCC(=O)N1CCC(=NO)c2cc(F)ccc21 [Compound XV, 6-Fluoro-4-oximino-1-propionyl-1,2,3,4-tetrahydroquinoline]		Sparingly soluble	347	425		9.3	3440	209			soluble		
NS(=O)(=O)c1cc(C(=O)O)c(NCc2ccco2)cc1Cl [Furosemide, reference compound]			133										
COC(=O)N1CCC(=NO)c2cc(F)ccc21 [IX, 6-Fluoro-4-oximino-1-methoxycarbonyl-1,2,3,4-tetrahydroquinoline]		Sparingly soluble	309	408		22	> 5000	251			soluble		
CCCCC1C(=O)N(c2ccccc2)N(c2ccccc2)C1=O [Phenylbutazone, reference compound]						65							63
CC(=O)N1CCC(=NO)c2cc(Br)ccc21 [XIV, 6-Bromo-4-oximino-1-acetyl-1,2,3,4-tetrahydroquinoline]		Sparingly soluble			234	182	> 5000				soluble		
CNC(=O)N1CCC(=NO)c2cc(Cl)ccc21 [XIX, 6-Chloro-4-oximino-1-methylcarbamoyl-1,2,3,4-tetrahydroquinoline]		Sparingly soluble				62	> 5000			180	soluble		
CCC(=O)N1CCC(=NO)c2cc(Br)ccc21 [XVI, 6-Bromo-4-oximino-1-propionyl-1,2,3,4-tetrahydroquinoline]		Sparingly soluble	243	380		16	4710				soluble		
CC(C)C(=O)N1CCC(=NO)c2cc(Br)ccc21 [XVII, 6-Bromo-4-oximino-1-isobutyryl-1,2,3,4-tetrahydroquinoline]		Sparingly soluble				102	> 5000			173	soluble		
O=C(C=Cc1ccccc1)N1CCC(=NO)c2cc(Br)ccc21 [XVIII, 6-Bromo-4-oximino-1-cinnamoyl-1,2,3,4-tetrahydroquinoline]		Sparingly soluble				133	> 5000			203	soluble		
CNC(=O)N1CCC(=NO)c2cc(Br)ccc21 [XX, 6-Bromo-4-oximino-1-methylcarbamoyl-1,2,3,4-tetrahydroquinoline]		Sparingly soluble				95	> 5000			197	soluble		
CN(C)C(=O)N1CCC(=NO)c2cc(F)ccc21 [XXI, 6-Fluoro-4-oximino-1-dimethylcarbamoyl-1,2,3,4-tetrahydroquinoline]		Sparingly soluble		128	209	141	> 5000				soluble		

Source: patent US4440770A, “Diuretic, hypotensive and antiedemic quinoline oximes” (Mochida Seiyaku Kabushiki Kaisha, priority 1980, dated 1984)
